Assay results as given in ChEMBL document CHEMBL5620423, “Highly-tumor-targeted PAD4 inhibitors with PBA modification inhibit tumors in vivo by specifically inhibiting the PAD4-H3cit-NETs pathway in neutrophils” (Eur J Med Chem, 2023).
Active and inactive are the calls of the source. No cut-off for these calls is given here.

How the values were obtained:
[1] = system: 4T1; test: Cytotoxicity against mouse 4T1 cells assessed as reduction in cell viability measured after 48 hrs by MTT assay; details: 4T1, 48 h
[2] = system: Sarcoma-180; test: Antitumor activity against Sarcoma-180 mouse model assessed as tumor weight at 10 umol/kg (reference value: 1.65 +/-0.2 gms); assay type: functional; details: dose 10 µmol/kg
[3] = system: Sarcoma-180; test: Antitumor activity against Sarcoma-180 mouse model assessed as inhibition of tumor growth at 10 umol/kg; assay type: functional
[4] = molecular target: Protein-arginine deiminase type-4 (Homo sapiens, UniProt Q9UM07); test: Inhibition of PAD4 (unknown origin) using BAEE as substrate by colorimetric analysis
Chain of Protein-arginine deiminase type-4 (Q9UM07 whole entry): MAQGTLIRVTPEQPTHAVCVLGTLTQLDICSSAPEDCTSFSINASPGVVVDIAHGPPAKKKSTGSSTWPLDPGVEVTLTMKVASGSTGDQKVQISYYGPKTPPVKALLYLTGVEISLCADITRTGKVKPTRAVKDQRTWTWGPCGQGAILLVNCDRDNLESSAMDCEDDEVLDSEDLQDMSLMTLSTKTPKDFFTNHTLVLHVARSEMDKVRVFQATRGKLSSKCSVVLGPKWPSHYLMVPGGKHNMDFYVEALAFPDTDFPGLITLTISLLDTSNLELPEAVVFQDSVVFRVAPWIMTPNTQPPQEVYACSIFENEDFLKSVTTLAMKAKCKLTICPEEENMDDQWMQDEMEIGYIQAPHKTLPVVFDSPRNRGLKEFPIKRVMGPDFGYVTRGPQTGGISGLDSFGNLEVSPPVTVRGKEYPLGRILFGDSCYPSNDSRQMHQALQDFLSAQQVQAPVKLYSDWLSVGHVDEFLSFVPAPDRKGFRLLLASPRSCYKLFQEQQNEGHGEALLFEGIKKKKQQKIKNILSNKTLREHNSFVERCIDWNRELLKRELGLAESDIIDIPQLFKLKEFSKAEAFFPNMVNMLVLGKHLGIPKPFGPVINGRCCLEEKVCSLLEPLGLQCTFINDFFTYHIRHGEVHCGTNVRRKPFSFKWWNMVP

[5] = molecular target: Protein-arginine deiminase type-4 (Mus musculus) (UniProt Q9Z183); test: Inhibition of PAD4 in mouse bone marrow neutrophils assessed as reduction in H3 cit expression by measuring red filamentous histone structure at 50 uM measured after 48 hrs by Hoechst33342 staining based confocal laser scanning microscopy; assay type: cell-based; details: Neutrophil
Chain of Protein-arginine deiminase type-4 (Mus musculus) (Q9Z183 whole entry): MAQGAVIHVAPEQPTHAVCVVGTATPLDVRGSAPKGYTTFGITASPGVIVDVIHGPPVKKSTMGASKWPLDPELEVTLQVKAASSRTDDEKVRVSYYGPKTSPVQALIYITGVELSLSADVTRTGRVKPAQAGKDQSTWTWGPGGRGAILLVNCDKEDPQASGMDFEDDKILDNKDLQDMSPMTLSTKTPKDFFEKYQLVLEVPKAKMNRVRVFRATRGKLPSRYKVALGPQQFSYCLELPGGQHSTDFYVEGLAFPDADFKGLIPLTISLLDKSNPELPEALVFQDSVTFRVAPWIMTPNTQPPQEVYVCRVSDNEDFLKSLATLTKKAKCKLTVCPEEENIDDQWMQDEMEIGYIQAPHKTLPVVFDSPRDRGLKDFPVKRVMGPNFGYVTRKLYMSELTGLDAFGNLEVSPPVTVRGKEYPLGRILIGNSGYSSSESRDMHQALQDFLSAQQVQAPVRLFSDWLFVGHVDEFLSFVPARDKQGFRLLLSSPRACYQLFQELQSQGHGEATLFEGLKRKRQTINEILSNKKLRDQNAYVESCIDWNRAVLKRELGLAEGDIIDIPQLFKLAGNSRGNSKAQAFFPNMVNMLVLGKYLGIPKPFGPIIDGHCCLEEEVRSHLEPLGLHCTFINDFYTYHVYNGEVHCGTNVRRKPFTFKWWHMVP

[6] = system: 4T1; test: Antitumor activity against mouse 4T1 cells xenografted in BALB/c mouse assessed as reduction in tumor volume at 10 umol/kg, iv for 21 days; assay type: functional, organism-based; details: dose 10.0 µmol/kg, time 21.0 day
[7] = system: 4T1; test: Antitumor activity against mouse 4T1 cells xenografted in BALB/c mouse assessed as reduction in tumor weight at 10 umol/kg, iv for 21 days; assay type: functional, organism-based; details: dose 10.0 µmol/kg, time 21.0 day
[8] = Toxicity in BALB/c mouse xenografted with mouse 4T1 cells assessed as decrease in body weight at 10 umol/kg, iv measured after 9 to 15 days; assay type: organism-based; details: in vivo, time 9-15 day, dose 10 µmol/kg
[9] = system: 4T1; test: Anti-metastatic activity against mouse 4T1 cells xenografted in BALB/c mouse assessed as reduction in number of lung metastatic tumor nodules at 10 umol/kg, iv for 21 days; assay type: functional, organism-based; details: dose 10.0 µmol/kg, time 21.0 day
[10] = Hepatotoxicity in BALB/c mouse xenografted with mouse 4T1 cells assessed as reduction in serum ALT level at 10 umol/kg, iv for 21 days; assay type: toxicity, organism-based; details: in vivo, 504 h, dose 10 µmol/kg, time 21 day
[11] = Nephrotoxicity in BALB/c mouse xenografted with mouse 4T1 cells assessed as […] in serum creatinine level at 10 umol/kg, iv for 21 days; assay type: toxicity, organism-based; details: in vivo, 504 h, dose 10 µmol/kg, time 21 day
[12] = Nephrotoxicity in BALB/c mouse xenografted with mouse 4T1 cells assessed as reduction in serum BUN level at 10 umol/kg, iv for 21 days; assay type: toxicity, organism-based; details: in vivo, 504 h, dose 10 µmol/kg, time 21 day
[13] = system: Lewis lung carcinoma; test: Cytotoxicity against mouse Lewis lung carcinoma cells assessed as effect on cell viability at 3.125 to 100 uM measured after 48 hrs by MTT assay; assay type: functional, cell-based; details: dose 3.125-100 µM
[14] = system: 4T1; test: Cytotoxicity against mouse 4T1 cells assessed as effect on cell viability at 3.125 to 100 uM measured after 48 hrs by MTT assay; assay type: functional, cell-based; details: dose 3.125-100 µM
[15] = system: L02; test: Cytotoxicity against human HL7702 cells assessed as effect on cell viability at 3.125 to 100 uM measured after 48 hrs by MTT assay; assay type: toxicity, cell-based; details: l02, 48 h, dose 3.125-100 µM
[16] = Drug uptake in human HL7702 cells assessed as green fluorescence intensity at 50 uM measured after 48 hrs by Hoechst33342 staining based confocal laser microscopy; assay type: ADME, cell-based; details: l02, 48 h
[17] = Drug uptake in mouse 4T1 cells assessed as layer of green fluorescence around the cell membrane at 50 uM measured after 48 hrs by Hoechst33342 staining based confocal laser microscopy; assay type: ADME; details: 4t1, 48 h
[18] = system: 4T1; test: Induction of cell morphological changes in mouse 4T1 cells assessed as increase in number of cells with shrank mitochondria measured after 48 hrs by transmission electron microscopy; assay type: functional, cell-based
[19] = system: 4T1; test: Induction of cell morphological changes in mouse 4T1 cells assessed as rounded tumor cells at 50 uM measured after 48 hrs by scanning electron microscopy; assay type: functional, cell-based
[20] = system: 4T1; test: Induction of cell morphological changes in mouse 4T1 cells assessed as reduction in pseudopodia on cell surface at 50 uM measured after 48 hrs by scanning electron microscopy; assay type: functional, cell-based
[21] = Drug uptake in mouse 4T1 cells assessed as increase in green fluorescence intensity at 50 uM measured for 24 hrs flow cytometry; assay type: ADME, cell-based; details: 4t1, 24 h
[22] = Drug uptake in mouse 4T1 cells assessed as drug localization in cytoplasm at 50 uM measured after 48 hrs by Hoechst33342 staining based confocal laser scanning microscopy; assay type: ADME, cell-based; details: 4t1, 48 h
[23] = Drug uptake in mouse bone marrow neutrophils assessed as drug localization in nucleus at 50 uM measured after 48 hrs by Hoechst33342 staining based confocal laser scanning microscopy; assay type: ADME, cell-based; details: neutrophil
[24] = molecular target: Protein-arginine deiminase type-4 (Mus musculus) (UniProt Q9Z183); test: Inhibition of PAD4 in mouse 4T1 cells assessed as reduction in citrullinated histone level at 100 uM measured after 48 hrs by Hoechst33342 staining based confocal laser scanning microscopy; assay type: cell-based
[25] = molecular target: Protein-arginine deiminase type-4 (Mus musculus) (UniProt Q9Z183); test: Inhibition of PAD4 in mouse bone marrow neutrophils assessed as reduction in citrullinated histone level at 100 uM measured after 48 hrs by Hoechst33342 staining based confocal laser scanning microscopy; assay type: cell-based; details: Neutrophil
[26] = system: 4T1; test: Antitumor activity against mouse 4T1 cells xenografted in BALB/c mouse assessed as reduction in tumor volume at 2 to 10 umol/kg, iv for 21 days; assay type: functional, organism-based; details: dose 2-10 µmol/kg, time 21.0 day
[27] = Toxicity in BALB/c mouse xenografted with mouse 4T1 cells assessed as decrease in body weight at 2 to 10 umol/kg, iv measured after 9 to 15 days; assay type: organism-based; details: in vivo, dose lower 2 µmol/kg, time lower 9 day, dose upper 10 µmol/kg, time upper 15 day
[28] = system: 4T1; test: Anti-metastatic activity against mouse 4T1 cells xenografted in BALB/c mouse assessed as reduction in number of lung metastatic tumor nodules at 5 to 10 umol/kg, iv for 21 days; assay type: functional, organism-based; details: dose 5-10 µmol/kg, time 21.0 day
[29] = system: 4T1; test: Anti-metastatic activity against mouse 4T1 cells assessed as reduction in tumor cell lesions in lungs at 10 umol/kg, iv for 21 days by Hematoxylin-Eosin staining; assay type: functional, organism-based; details: dose 10.0 µmol/kg, time 21.0 day
[30] = system: 4T1; test: Anti-metastatic activity against mouse 4T1 cells assessed as reduction in tumor cell lesions in lungs at 5 umol/kg, iv for 21 days by Hematoxylin-Eosin staining; assay type: functional, organism-based; details: dose 5.0 µmol/kg, time 21.0 day
[31] = system: 4T1; test: Anti-metastatic activity against mouse 4T1 cells assessed as reduction in inflammatory cell infiltration in lungs at 5 umol/kg, iv for 21 days by Hematoxylin-Eosin staining; assay type: functional, organism-based; details: dose 5.0 µmol/kg, time 21.0 day
[32] = system: 4T1; test: Anti-metastatic activity against mouse 4T1 cells assessed as reduction in tumor cell lesions in lungs at 2 umol/kg, iv for 21 days by Hematoxylin-Eosin staining; assay type: functional, organism-based; details: dose 2.0 µmol/kg, time 21.0 day
[33] = system: 4T1; test: Anti-metastatic activity against mouse 4T1 cells assessed as reduction in neutrophil extranuclear traps formation by measuring decrease in Ly6G-labeled neutrophils in tumor at 10 umol/kg, iv for 21 days by immunofluorescence analysis; assay type: functional, organism-based; details: dose 10.0 µmol/kg, time 21.0 day
[34] = system: 4T1; test: Anti-metastatic activity against mouse 4T1 cells assessed as reduction in neutrophil extranuclear traps formation by measuring decrease in H3cit positivity in tumor at 10 umol/kg, iv for 21 days by immunofluorescence analysis; assay type: functional, organism-based; details: dose 10.0 µmol/kg, time 21.0 day
[35] = Hepatotoxicity in BALB/c mouse xenografted with mouse 4T1 cells assessed as serum ALT level at 2 to 10 umol/kg, iv for 21 days; assay type: toxicity, organism-based; details: in vivo, 504 h, dose 2-10 µmol/kg, time 21 day
[36] = Hepatotoxicity in BALB/c mouse xenografted with mouse 4T1 cells assessed as serum AST level at 2 to 10 umol/kg, iv for 21 days; assay type: toxicity, organism-based; details: in vivo, 504 h, dose 2-10 µmol/kg, time 21 day
[37] = Nephrotoxicity in BALB/c mouse xenografted with mouse 4T1 cells assessed as serum creatinine level at 2 to 10 umol/kg, iv for 21 days; assay type: toxicity, organism-based; details: in vivo, 504 h, dose 2-10 µmol/kg, time 21 day
[38] = Nephrotoxicity in BALB/c mouse xenografted with mouse 4T1 cells assessed as serum BUN level at 2 to 10 umol/kg, iv for 21 days; assay type: toxicity, organism-based; details: in vivo, 504 h, dose 2-10 µmol/kg, time 21 day
[39] = Toxicity in BALB/c mouse xenografted with mouse 4T1 cells assessed as heart morphological changes at 10 umol/kg, iv for 21 days by Hematoxylin-Eosin staining based analysis; assay type: organism-based; details: in vivo, 504 h, dose 10 µmol/kg, time 21 day
[40] = Toxicity in BALB/c mouse xenografted with mouse 4T1 cells assessed as liver morphological changes at 10 umol/kg, iv for 21 days by Hematoxylin-Eosin staining based analysis; assay type: organism-based; details: in vivo, 504 h, dose 10 µmol/kg, time 21 day
[41] = Toxicity in BALB/c mouse xenografted with mouse 4T1 cells assessed as spleen morphological changes at 10 umol/kg, iv for 21 days by Hematoxylin-Eosin staining based analysis; assay type: organism-based; details: in vivo, 504 h, dose 10 µmol/kg, time 21 day
[42] = Toxicity in BALB/c mouse xenografted with mouse 4T1 cells assessed as kidney morphological changes at 10 umol/kg, iv for 21 days by Hematoxylin-Eosin staining based analysis; assay type: organism-based; details: in vivo, 504 h, dose 10 µmol/kg, time 21 day
[43] = system: Mus musculus; test: Immunomodulatory activity in iv dosed BALB/c mouse xenografted with mouse 4T1 cells assessed as increase in normal neutrophils in tumor tissues administered for 21 days by CyTOF analysis; assay type: functional, organism-based; details: time 21.0 day
[44] = system: Mus musculus; test: Immunomodulatory activity in iv dosed BALB/c mouse xenografted with mouse 4T1 cells assessed as decrease in proportion of aged neutrophils (CD194hi|CD62Llo) in tumor tissues administered for 21 days by CyTOF analysis; assay type: functional, organism-based; details: time 21.0 day
[45] = system: Mus musculus; test: Immunomodulatory activity in iv dosed BALB/c mouse xenografted with mouse 4T1 cells assessed as macrophage polarization by measuring increase in proportion of M1 macrophages administered for 21 days by CyTOF analysis; assay type: functional, organism-based; details: time 21.0 day
[46] = system: Mus musculus; test: Immunomodulatory activity in iv dosed BALB/c mouse xenografted with mouse 4T1 cells assessed as macrophage polarization by measuring proportion of M2 macrophages administered for 21 days by CyTOF analysis; assay type: functional, organism-based; details: time 21.0 day

Compound: N=C(CCl)NCCC[C@H](NC(=O)c1ccccc1B(O)O)C(=O)NCc1ccccc1
- IC50 [1]: > 100 µM
- Activity [2]: 1 g
- inhibition in vivo at 10 µmol/kg [3]: 39.2%

Compound: N=C(CCl)NCCC[C@H](NC(=O)c1cc(F)cc(B(O)O)c1)C(=O)NCc1ccccc1
- IC50 [1]: > 100 µM
- Activity [2]: 1.01 g
- inhibition in vivo at 10 µmol/kg [3]: 38.7%

Compound: N=C(CCl)NCCC[C@H](NC(=O)c1cccc(B(O)O)c1)C(=O)NCc1ccccc1
- IC50 [1]: > 100 µM
- Activity [2]: 1.04 g
- inhibition in vivo at 10 µmol/kg [3]: 36.7%

Compound: N=C(CCl)NCCC[C@H](NC(=O)c1ccc(F)c(B(O)O)c1)C(=O)NCc1ccccc1
- IC50 [1]: > 100 µM
- Activity [2]: 1.03 g
- inhibition in vivo at 10 µmol/kg [3]: 37.5%

Compound: CN(C)c1ccc2cc(C(=O)N[C@@H](CCCNC(=N)CCl)C(=O)NCc3ccccc3)ccc2c1
- IC50 [4]: 2.86 µM
- IC50 [1]: 11.9 µM
- Activity [2]: 0.94 g
- inhibition in vivo at 10 µmol/kg [3]: 42.7%
- inhibition [5]: Active
- Activity [6]: Active
- Activity [7]: Active
- Activity [8]: Toxic
- Activity [9]: Active
- Activity [10]: Toxic
- Activity [11]: Toxic
- Activity [12]: Toxic

Compound: N=C(CCl)NCCC[C@H](NC(=O)c1cc([N+](=O)[O-])c2nonc2c1)C(=O)NCc1cccc(B(O)O)c1
- IC50 [1]: > 100 µM
- Activity [2]: 0.84 g
- inhibition in vivo at 10 µmol/kg [3]: 49.2%
- Activity [13]: inactive
- Activity [14]: inactive
- Activity [15]: Non-Toxic
- Drug uptake [16]: Not Active
- Drug uptake [17]: Active
- Activity [18]: Active
- Activity [19]: Active
- Activity [20]: Active
- Drug uptake [21]: Active
- inhibition [5]: Active
- Drug uptake [22]: Active
- Drug uptake [23]: Active
- inhibition [24]: Active
- inhibition [25]: Active
- Activity [26]: Active
- Activity [7]: Active
- Activity [27]: Non-Toxic
- Activity [28]: Active
- Activity [29]: Active
- Activity [30]: Active
- Activity [31]: inactive
- Activity [32]: inactive
- Activity [33]: Active
- Activity [34]: Active
- Activity [35]: Non-Toxic
- Activity [36]: Non-Toxic
- Activity [37]: Non-Toxic
- Activity [38]: Non-Toxic
- Activity [39]: Non-Toxic
- Activity [40]: Non-Toxic
- Activity [41]: Non-Toxic
- Activity [42]: Non-Toxic
- Activity [43]: Active
- Activity [44]: Active
- Activity [45]: Active
- Activity [46]: inactive
